Drawing on patent publication US20240116897A1, “BENZOTHIAZOLE AND BENZIMIDAZOLE DERIVATIVES, PHARMACEUTICALLY ACCEPTABLE SALT THEREOF, PREPARATION METHOD THEREFOR, AND PHARMACEUTICAL COMPOSITION COMPRISING SAME AS ACTIVE INGREDIENT” (KOREA RESEARCH INSTITUTE OF CHEMICAL TECHNOLOGY, priority 2021, published 2024), this text covers inhibition for 14 compounds.

This assay addresses T1, SIRT7 protein (Homo sapiens, UniProt Q9NRC8).
T1 construct: purchased SignalChem S41-30H
T1 sequence (Q9NRC8 1-400): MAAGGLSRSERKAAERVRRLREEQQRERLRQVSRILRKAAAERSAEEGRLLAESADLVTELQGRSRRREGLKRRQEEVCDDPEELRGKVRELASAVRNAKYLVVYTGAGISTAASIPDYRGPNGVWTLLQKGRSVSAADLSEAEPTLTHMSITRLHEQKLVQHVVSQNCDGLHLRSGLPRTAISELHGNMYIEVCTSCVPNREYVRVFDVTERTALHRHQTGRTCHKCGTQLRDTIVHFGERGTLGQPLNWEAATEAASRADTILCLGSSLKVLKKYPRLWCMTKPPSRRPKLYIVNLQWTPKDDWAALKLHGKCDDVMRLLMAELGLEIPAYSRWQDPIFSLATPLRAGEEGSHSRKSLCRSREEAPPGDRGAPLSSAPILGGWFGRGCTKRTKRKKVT
As to the kind of experiment: SIRT Glo assay, inhibitory activity against Sirt7. The format is biochemical. The conditions noted are these: 10 μM compound. Here is the method:
Promega's Cat. No. 6450 SIRT Glo assay kit was used, and as the target SIRT7 protein, No. S41-30H protein of SignalChem's Cat. was used. Prepare the compound by diluting it in SIRT Glo buffer in advance to a concentration twice as thick as the final concentration. For the positive control group of white 384 well plate (Greiner Bioone, white, small volume, Cat. No. 874075), and for compound group, dilute sirt7 protein in SIRT Glo buffer and dispense by 5 μL to contain 20 ng per well. In the background control group, 10 μL of SIRT Glo buffer is dispensed.
After adding 5 μL of SIRT Glo buffer to the positive control group, and 5 μL of the diluted compound to the compound group, react for 30 minutes. After making the substrate provided in the SIRT Glo assay, adding 10 μL each, and reacting for 1 hour, the luciferase activity is measured with a microplate reader (Molecular Device, spectramax i3).
Subtract the luciferase level of the background control group in all wells. The % inhibition of the compound was used to obtain the compound's rate of inhibitory activity against sirt7 in the following:
% inhibition=100−(compound group/positive control group)×100.
Consider `O=C(Nc1nc2ccccc2s1)c1ccc(CN2CCN(S(=O)(=O)c3ccc(C(F)(F)F)cc3)CC2)cc1` [Compound 1-36, N-(benzo[d]thiazol-2-yl)-4-((4-((4-(trifluoromethyl)phenyl)sulfonyl)piperazin-1-yl)methyl)benzamide], for which 10 µM produced 15% inhibition.
With `O=C(Nc1nc2ccccc2s1)c1ccc(CN2CCN(C(=O)Nc3ccccc3)CC2)cc1` [Compound 1-38, 4-(4-(benzo[d]thiazol-2-ylcarbamoyl)benzyl)-N-phenylpiperazine-1-carboxamide], at 10 µM the inhibition was 98%.
The figure for `O=C(Nc1nc2ccccc2s1)c1ccc(CN2CCN(C(=O)Nc3ccc(C(F)(F)F)cc3)CC2)cc1` [Compound 1-39, 4-(4-(benzo[d]thiazol-2-ylcarbamoyl)benzyl)-N-(4-(trifluoromethyl)phenyl)piperazine-1-carboxamide] is 87%; for `CC(C)NC(=O)N1CCN(Cc2ccc(C(=O)Nc3nc4ccccc4s3)cc2)CC1` [Compound 1-40, 4-(4-(benzo[d]thiazol-2-ylcarbamoyl)benzyl)-N-isopropylpiperazine-1-carboxamide] it is 87%; for `O=C(Nc1nc2ccccc2s1)c1ccc(CN2CCN(C(=O)NC34CC5CC(CC(C5)C3)C4)CC2)cc1` [Compound 1-41] it is 66%.
In turn, `COc1ccc(NC(=O)N2CCN(Cc3ccc(C(=O)Nc4nc5ccccc5s4)cc3)CC2)cc1` [Compound 1-42, 4-(4-(benzo[d]thiazol-2-ylcarbamoyl)benzyl)-N-(4-methoxyphenyl)piperazine-1-carboxamide] yielded an inhibition at 10 µM of 89%.
The result for `O=C(Nc1nc2ccccc2s1)c1ccc(CN2CCN(C(=O)Nc3ccccc3C(F)(F)F)CC2)cc1` [Compound 1-43, 4-(4-(benzo[d]thiazol-2-ylcarbamoyl)benzyl)-N-(2-(trifluoromethyl)phenyl)piperazine-1-carboxamide] reads 79%.
Compound `O=C(Nc1nc2ccccc2s1)c1ccc(CN2CCN(C(=O)Nc3ccc(F)cc3)CC2)cc1` [Compound 1-44, 4-(4-(benzo[d]thiazol-2-ylcarbamoyl)benzyl)-N-(4-fluorophenyl)piperazine-1-carboxamide] showed an inhibition at 10 µM of 95%.
The result for `O=C(Nc1nc2ccccc2s1)c1ccc(CN2CCN(C(=O)Nc3ccccc3F)CC2)cc1` [Compound 1-45, 4-(4-(benzo[d]thiazol-2-ylcarbamoyl)benzyl)-N-(2-fluorophenyl)piperazine-1-carboxamide] reads 96%; that for `O=C(Nc1nc2ccccc2s1)c1ccc(CN2CCN(C(=O)Nc3ccc4c(c3)CCC4)CC2)cc1` [Compound 1-46, 4-(4-(benzo[d]thiazol-2-ylcarbamoyl)benzyl)-N-(2,3-dihydro-1H-inden-5-yl)piperazine-1-carboxamide], 84%; that for `Cc1cc(C)cc(NC(=O)N2CCN(Cc3ccc(C(=O)Nc4nc5ccccc5s4)cc3)CC2)c1` [Compound 1-47, 4-(4-(benzo[d]thiazol-2-ylcarbamoyl)benzyl)-N-(3,5-dimethyphenyl)piperazine-1-carboxamide], 88%.
The result for `CCCCOC(=O)CNC(=O)N1CCN(Cc2ccc(C(=O)Nc3nc4ccccc4s3)cc2)CC1` [Compound 1-48, butyl-(4-(4-(benzo[d]thiazol-2-ylcarbamoyl)benzyl)piperazine-1-carbonyl)glycinate] reads 54%; that for `O=C(Nc1nc2ccccc2s1)c1ccc(CN2CCN(C(=O)Nc3ccc(Cl)cc3)CC2)cc1` [Compound 1-49, 4-(4-(benzo[d]thiazol-2-ylcarbamoyl)benzyl)-N-(4-chlorophenyl)piperazine-1-carboxamide], 89%; that for `CCc1ccccc1NC(=O)N1CCN(Cc2ccc(C(=O)Nc3nc4ccccc4s3)cc2)CC1` [Compound 1-50, 4-(4-(benzo[d]thiazol-2-ylcarbamoyl)benzyl)-N-(2-ethylphenyl)piperazine-1-carboxamide], 61%.

The term inhibition denotes the share of the control response that was lost under treatment. A low value points to a response near the control.
